Experimental data from article PMC8708032, “Fragment-Based Ligand Discovery Applied to the Mycolic Acid Methyltransferase Hma (MmaA4) from Mycobacterium tuberculosis: A Crystallographic and Molecular Modelling Study” (Pharmaceuticals, 2021).

Target: Hma (MmaA4) (Mycobacterium tuberculosis, UniProt Q79FX8)
Sequence (Q79FX8 4-301): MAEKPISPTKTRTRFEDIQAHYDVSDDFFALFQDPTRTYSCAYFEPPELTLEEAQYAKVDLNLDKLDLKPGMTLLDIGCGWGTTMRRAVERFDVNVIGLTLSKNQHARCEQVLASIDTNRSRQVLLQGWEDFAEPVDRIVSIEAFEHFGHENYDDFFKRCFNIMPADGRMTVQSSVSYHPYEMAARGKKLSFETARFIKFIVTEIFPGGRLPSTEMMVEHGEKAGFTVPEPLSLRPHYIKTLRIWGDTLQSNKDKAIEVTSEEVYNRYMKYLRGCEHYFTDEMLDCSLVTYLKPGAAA

Structure (SMILES): O=Cc1ccc2cccc(O)c2n1 [ZT726]
- X-ray crystallography, fragment soak, PanDDA: A second molecule of the ZT260 and ZT320 fragments is located at this position, as well as ZT726
